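Each compound was tested at five concentrations against cells in 96-well plates for 48 hours. GI50 marks 50% less growth.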 Active and inactive are the calls of the source. Cut-off read from the data, not from the text of the source: active = GI50 up to about 1.1 µM and inactive = higher.

Holding throughout (assay): NCI anticancer screen, dose series, 48 h
The test system of experiment [1] is 786-0.
In experiment [2] the test system is A498.
Experiment [3] relates to ACHN.
The test system of experiment [4] is CAKI-1.
Experiment [5] has as its system COLO 205.
Experiment [6] concerns HCT-15.
For experiment [7], the system named is Hs-578T.
Experiment [8] relates to MDA-MB-435.
Experiment [9] has as its system MOLT-4.
Experiment [10] relates to NCI-H460.
Experiment [11] concerns NCI/ADR-RES.
Experiment [12] concerns SF-268.
The test system of experiment [13] is SF-539.
Experiment [14] concerns SK-MEL-28.
In experiment [15] the test system is SK-MEL-2.
In experiment [16] the test system is SK-OV-3.
Experiment [17] deals with SN12C.
Experiment [18] relates to SW-620.
For experiment [19], the system named is TK-10.
In experiment [20] the test system is UO-31.

With `CCCC(=O)NC(Nc1ccc(S(=O)(=O)Nc2ccc(OC)nn2)cc1)(C(F)(F)F)C(F)(F)F`, the GI50 in experiment [1] was > 100 µM (inactive); in [2], 87.9 µM (inactive); in experiment [3] it was > 100 µM (inactive); in experiment [4], > 100 µM (inactive); in experiment [5], > 100 µM (inactive); in [6] it was above 100 µM. Also, the GI50 in [7], in experiment [8], in [9], in experiment [10], in experiment [11] and in [12] was > 100 µM (inactive) each time. Also, the GI50 in experiment [13], in experiment [14], in experiment [15], in experiment [16], in experiment [17] and in [18] was > 100 µM (inactive) throughout. The GI50 in experiment [19] and in experiment [20] was > 100 µM (inactive) each time.
For `COC(=O)Cc1ccc2c(c1)Sc1ccc(CC(=O)OC)cc1N2C`, the GI50 in experiment [1] is 25.5 µM (inactive); in [2], 40.6 µM (inactive); in [3], 38 µM (inactive); in experiment [4], 11.6 µM (inactive); in experiment [5], 18.2 µM (inactive); in experiment [6], 14.7 µM. The GI50 is 39.3 µM (inactive) in [7]; 6.4 µM (inactive) in [8]; 9.66 µM (inactive) in experiment [9]; 33.1 µM (inactive) in [10]; 16.3 µM (inactive) in experiment [11]; 38.3 µM (inactive) in experiment [12]. Also, the GI50 is 36.3 µM (inactive) in experiment [13]; 38.3 µM (inactive) in [14]; 51.4 µM (inactive) in experiment [15]; 38.3 µM (inactive) in experiment [16]; 33.7 µM (inactive) in experiment [17]; 39.1 µM (inactive) in experiment [18]. Moreover, the GI50 in [19] is 58.3 µM (inactive); in experiment [20], 16.8 µM (inactive).
Take `CC(C(=O)O)/C(=C\c1ccc2c(c1)OCO2)C(=O)O` (stereo not given): the GI50 is > 100 µM (inactive) in experiment [1]; > 100 µM (inactive) in experiment [2]; > 100 µM (inactive) in experiment [3]; > 100 µM (inactive) in experiment [4]; > 100 µM (inactive) in [5]; above 100 µM in [6]. In addition, the GI50 is > 100 µM (inactive) in experiment [7]; > 100 µM (inactive) in experiment [8]; > 6.89 µM (inactive) in experiment [9]; > 100 µM (inactive) in [10]; > 100 µM (inactive) in experiment [11]; > 100 µM (inactive) in [12]. The GI50 in experiment [13], in experiment [14], in experiment [15], in experiment [16], in experiment [17] and in experiment [18] was > 100 µM (inactive) throughout. Further, the GI50 in experiment [19] and in experiment [20] was > 100 µM (inactive) each time.
`COc1ccc(C2c3cc4c(cc3OC3(OC)COC(=O)C23)OCO4)c(OC)c1` (stereo not given): the GI50 in experiment [1] is 11.3 µM (inactive); in experiment [2], 39.5 µM (inactive); in experiment [3], 34.8 µM (inactive); in [4] it was 7.43 µM (inactive); in experiment [5], 5.62 µM (inactive); in [6], 5.19 µM. The GI50 in experiment [7] is 3.78 µM (inactive); in experiment [8], 1.71 µM (inactive); in experiment [9], 4.91 µM (inactive); in experiment [10], 7.14 µM (inactive); in experiment [11], 3.23 µM (inactive); in experiment [12] it was 14.6 µM (inactive). Also, the GI50 in experiment [13] was 4.62 µM (inactive); in experiment [14], 18.4 µM (inactive); in experiment [15], 12.6 µM (inactive); in [16], 15.9 µM (inactive); in experiment [17], 15.6 µM (inactive); in experiment [18], 6.43 µM (inactive). Further, the GI50 in experiment [19] is 32.6 µM (inactive); in [20] it was 14.9 µM (inactive).

For the origin of these results see ChEMBL document CHEMBL1201862, “PubChem BioAssay data set” (2004).
